Among the data in patent EP4722213A1, “NITROGEN-CONTAINING FUNCTIONAL GROUP-SUBSTITUTED PYRIDAZINOPYRIDONE DERIVATIVE AND USE THEREOF” (Sichuan Huiyu Pharmaceutical Co., Ltd., priority 2023, dated 2024) are IC50, half-life and CLint scaled values, retold here.

For one series, the target named is T1, SOS1 (Homo sapiens, UniProt Q07889).
T1 sequence (Q07889 1-1333): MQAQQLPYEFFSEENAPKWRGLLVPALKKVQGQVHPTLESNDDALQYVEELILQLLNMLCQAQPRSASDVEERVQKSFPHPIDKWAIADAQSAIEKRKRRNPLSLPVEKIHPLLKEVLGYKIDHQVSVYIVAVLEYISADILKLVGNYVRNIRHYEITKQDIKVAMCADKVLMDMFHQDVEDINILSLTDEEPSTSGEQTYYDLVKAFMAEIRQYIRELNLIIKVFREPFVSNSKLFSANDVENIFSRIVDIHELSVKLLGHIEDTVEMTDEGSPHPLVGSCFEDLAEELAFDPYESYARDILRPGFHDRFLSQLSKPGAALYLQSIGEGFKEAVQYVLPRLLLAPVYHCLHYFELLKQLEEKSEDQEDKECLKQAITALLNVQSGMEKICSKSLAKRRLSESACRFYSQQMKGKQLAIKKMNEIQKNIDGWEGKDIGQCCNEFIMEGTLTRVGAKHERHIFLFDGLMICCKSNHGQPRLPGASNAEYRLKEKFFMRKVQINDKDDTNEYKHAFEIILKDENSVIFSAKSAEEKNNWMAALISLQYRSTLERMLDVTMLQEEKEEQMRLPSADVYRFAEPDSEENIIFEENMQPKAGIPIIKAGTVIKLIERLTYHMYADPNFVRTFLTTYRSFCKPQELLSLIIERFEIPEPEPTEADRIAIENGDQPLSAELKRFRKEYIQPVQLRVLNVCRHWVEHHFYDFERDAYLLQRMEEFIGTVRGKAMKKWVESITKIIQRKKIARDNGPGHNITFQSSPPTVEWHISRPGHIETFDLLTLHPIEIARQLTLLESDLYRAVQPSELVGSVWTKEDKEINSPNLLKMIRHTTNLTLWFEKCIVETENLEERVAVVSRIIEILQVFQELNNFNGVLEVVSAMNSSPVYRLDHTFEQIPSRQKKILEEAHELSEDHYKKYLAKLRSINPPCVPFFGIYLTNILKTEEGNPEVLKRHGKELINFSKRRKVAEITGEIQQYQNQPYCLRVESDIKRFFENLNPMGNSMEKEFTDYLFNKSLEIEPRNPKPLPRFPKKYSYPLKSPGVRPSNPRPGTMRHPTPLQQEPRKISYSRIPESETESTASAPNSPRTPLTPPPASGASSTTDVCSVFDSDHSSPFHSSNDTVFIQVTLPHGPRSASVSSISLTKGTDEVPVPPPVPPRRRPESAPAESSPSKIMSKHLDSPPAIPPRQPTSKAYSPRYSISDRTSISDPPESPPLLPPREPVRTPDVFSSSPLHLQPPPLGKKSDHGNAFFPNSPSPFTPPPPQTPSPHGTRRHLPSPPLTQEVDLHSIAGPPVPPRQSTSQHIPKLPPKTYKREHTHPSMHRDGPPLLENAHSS
Nature of the series: biochemical.

Series [1] is described as follows: Rat liver microsomal metabolic stability. Format: in vitro ADME. Particulars: rat liver microsomes; for half-life at 1 µM: NADPH, 37°C; for CLint scaled at 1 µM: calculated from T1/2, fu defaulted to 1, read-out: CL(liver). From the text: Metabolic stability affects the clearance rate, half-life, and oral bioavailability of compounds in the body, and is one of the most important ADME drug-like properties of compounds. Hepatocyte microsomal stability assay is a commonly used method for studying metabolic stability. In the present disclosure, rat liver microsomes are used to determine and investigate the metabolic stability of compounds.
Preparation of compound stock solution: an appropriate amount of the test compound and testosterone was taken, and a 1 mM stock solution was prepared with DMSO, which was stored in a refrigerator at 4°C.
Preparation of compound working solution: The 1 mM compound stock solution was taken respectively, and then diluted to 100 µM with acetonitrile-water (v:v = 1:1) to obtain the working solution.
Preparation of NADPH working solution: an appropriate amount of NADPH was weighed and dissolved in 16 mM MgCl2 to prepare a NADPH working solution with a concentration of 4.0 mM.
Preparation of rat liver microsome working solution: an appropriate amount of rat liver microsomes was taken and diluted with PBS to obtain a liver microsome working solution with a concentration of 1 mg/mL.
In the incubation system, 48 µL of PBS, 100 µL of rat liver microsome working solution, and 2 µL of the test compound working solution were sequentially added and mixed well. After pre-incubation at 37°C for 5 min, 50 µL of NADPH was added to initiate the reaction. After incubation for the corresponding time points, an appropriate amount of ice-cold acetonitrile containing an internal standard was added to terminate the reaction. The mixture was vortexed to mix well, centrifuged, and the supernatant was collected. The supernatant was injected into LC-MS/MS for detection of the residual metabolic amount of the compound.
Softwares of Excel, etc. were used for data processing according to the following formula. Ct = C0 •e^(−ke •t) [formula] when Ct = (1)/(2)C0 [formula] , T1/2 = (Ln2)/(ke) = (0.693)/(ke) [formula] CLint(mic) = (0.693)/(In vitro T1/2)•(1)/(mg/mL microsomal protein in reaction system) [formula] CLint(liver) = CLint(mic) •(mg microsomes)/(g liver)•(g liver)/(kg body weight) [formula] CL(liver) = (CLint(liver)×fu×Qh)/(CLint(liver)×fu+Qh) [formula] fu (unbound fraction in blood) was defaulted to be 1.

In series [2] the test system is NCI-H358 non-small cell lung cancer cells. Nature of the series: Inhibition of NCI-H358 cell proliferation (CellTiter-Glo 3D, 7 days). The series is classed as cell-based. The following applies: Homo sapiens, NCI-H358, 168 h, 3D microspheres, read-out: Inhibitory activity against NCI-H358 cell proliferation (IC50). The protocol:
The number of viable cells were detected by CellTiter-Glo 3D® reagent, thereby evaluating the inhibitory effect of compounds on cell proliferation. NCI-H358 non-small cell lung cancer cells (Nanjing cobioer) in the exponential growth phase were digested with trypsin-EDTA, and seeded into 96-well ultra-low attachment microplates at 100 µL per well with a density of 2000 cells/well. The cells were cultured overnight at 37°C with 5% CO2 to form microspheres. The test compounds were serially diluted 5-fold with DMSO to obtain 8 concentration gradient dilutions, then diluted with RPMI-1640 (10% FBS) cell culture medium respectively to obtain compound working solutions (2×). 100 µL per well was added to the cell supernatant, and the culture was continued for 7 days under the conditions of 37°C and 5% CO2. The well plate was removed, and 100 µL of CellTiter-Glo 3D® reagent was added. After lysis at room temperature for 10-30 minutes, 70 µL of the lysate was aspirated and transferred to a white opaque 384-well plate.
The inhibition rate was calculated by the following formula: [formula] Note: The negative control refers to the group without inhibitor, and the blank refers to the group without cells.
The inhibitory activities of some Example compounds and comparative compounds against NCI-H358 cell proliferation are shown in Table 2. Table 2. Inhibitory activity of some Example compounds against NCI-H358 cell proliferation

Consider `C[C@@H](Nc1nnc(N2CCN(C)CC2)c2cc(=O)n(C3CC(F)(F)C3)cc12)c1cccc(C(F)F)c1F` [Example 90, (R)-6-(3,3-difluorocyclobutyl)-4-((1-(3-(difluoromethyl)-2-fluorophenyl)ethyl)amino)-1-(4-methylpiperazin-1-yl)pyrido[3,4-d]pyridazin-7(6H)-one], for which, on SOS1, the IC50 was determined as 4.2 nM. Further, in series [1], the half-life at 1 µM stood at 2.32 h and the CLint scaled at 1 µM is 13.5 mL/min/kg. For the same compound, the IC50 in series [2] is 49.8 nM.
The corresponding values for `Cc1c([C@@H](C)Nc2nnc(N3CCN(C(C)C)CC3)c3cc(=O)n(C4(C)CC4)cc23)cccc1C(F)(F)F` [Example 91, (R)-1-(4-isopropylpiperazin-1-yl)-4-((1-(2-methyl-3-(trifluoromethyl)phenyl)ethyl)amino)-6-(1-methylcyclopropyl) pyrido[3,4-d]pyridazin-7(6H)-one] are 5.7 nM, 2.52 h, 12.7 mL/min/kg and 38.5 nM.
For `CCNc1nnc(N[C@H](C)c2cccc(C(F)(F)F)c2C)c2cn(C3(C)CC3)c(=O)cc12` [Example 97, (R)-1-(ethylamino)-4-((1-(2-methyl-3-(trifluoromethyl)phenyl)ethyl)amino)-6-(1-methylcyclopropyl) pyrido[3,4-d]pyridazin-7(6H)-one] the same measures were 5.1 nM, 1.75 h, 16.7 mL/min/kg and 36.8 nM.
For `CCN1CCN(c2nnc(N[C@H](C)c3cccc(C(F)(F)F)c3C)c3cn(C4(C)CC4)c(=O)cc23)CC1` [Example 104, (R)-1-(4-ethylpiperazin-1-yl)-4-((1-(2-methyl-3-(trifluoromethyl)phenyl)ethyl)amino)-6-(1-methylcyclopropyl) pyrido[3,4-d]pyridazin-7(6H)-one] the same measures were 7.5 nM, 2.6 h, 12.4 mL/min/kg and 29.7 nM.
As to `C[C@@H](Nc1nnc(N2CCN(C(C)(C)C)CC2)c2cc(=O)n(C3CC(F)(F)C3)cc12)c1cccc(C(F)F)c1F` [Example 108, (R)-6-(3,3-difluorocyclobutyl)-4-((1-(3-(difluoromethyl)-2-fluorophenyl)ethyl)amino)-1-(4-(tert-butyl)piperazin-1-yl)pyrido[3,4-d]pyridazin-7(6H)-one], at SOS1, the IC50 was 5.5 nM. Further, in series [1], the half-life at 1 µM stood at 2.23 h and the CLint scaled at 1 µM is 13.9 mL/min/kg. Also, the IC50 in series [2] worked out at 27 nM.
The compound `CC(C)N1CCN(c2nnc(N[C@H](C)c3cccc(C(F)F)c3F)c3cn(C4CCC4)c(=O)cc23)CC1` [Example 113, (R)-6-cyclobutyl-4-((1-(3-(difluoromethyl)-2-fluorophenyl)ethyl)amino)-1-(4-isopropylpiperazin-1-yl)pyrido[3,4-d]pyridazin-7(6H)-one] gave an IC50 against SOS1 of 4.5 nM. Further, in series [1], the half-life at 1 µM worked out at 2.25 h and the CLint scaled at 1 µM is 13.9 mL/min/kg. In series [2], the IC50 worked out at 24.2 nM.
For `C[C@@H](Nc1nnc(N2CCN(CCO)CC2)c2cc(=O)n(C3(C)CC3)cc12)c1cccc(C(F)F)c1F` [Example 194, (R)-4-((1-(3-(difluoromethyl)-2-fluorophenyl)ethyl)amino)-1-(4-(2-hydroxyethyl)piperazin-1-yl)-6-(1-methylcyclopropyl) pyrido[3,4-d]pyridazin-7(6H)-one], the IC50 on SOS1 was determined as 3.9 nM; in series [2], 44.9 nM.
As for `C[C@@H](Nc1nnc(N2CCN(C)C[C@@H]2C)c2cc(=O)n(C3(C)CC3)cc12)c1cccc(C(F)F)c1F` [Example 195, 4-(((R)-1-(3-(difluoromethyl)-2-fluorophenyl)ethyl)amino)-1-((S)-2,4-dimethylpiperazin-1-yl)-6-(1-methylcyclopropyl) pyrido[3,4-d]pyridazin-7(6H)-one], the figures for the IC50 (at SOS1; in series [2]) were 3.7 nM and 25.6 nM, respectively.
Regarding `C[C@@H](Nc1nnc(N2CCN(CC3CC3)CC2)c2cc(=O)n(C3(C)CC3)cc12)c1cccc(C(F)F)c1F` [Example 219, (R)-1-(4-(cyclopropylmethyl)piperazin-1-yl)-4-((1-(3-(difluoromethyl)-2-fluorophenyl)ethyl)amino)-6-(1-methylcyclopropyl) pyrido[3,4-d]pyridazin-7(6H)-one], the results for the IC50 (against SOS1; in series [2]) were 4.7 nM and 25 nM, respectively. The compound also yielded a half-life at 1 µM in series [1] of 2.8 h. The CLint scaled at 1 µM in series [1] is 11.7 mL/min/kg.
The corresponding values for `C[C@@H](Nc1nnc(N2CCN(C3CCC3)CC2)c2cc(=O)n(C3(C)CC3)cc12)c1cccc(C(F)F)c1F` [Example 220, (R)-1-(4-cyclobutylpiperazin-1-yl)-4-((1-(3-(difluoromethyl)-2-fluorophenyl)ethyl)amino)-6-(1-methylcyclopropyl) pyrido[3,4-d]pyridazin-7(6H)-one] are 4 nM, 56.7 nM, 1.34 h and 19.9 mL/min/kg.
Consider `CCN1CCN(c2nnc(N[C@H](C)c3cccc(C(F)(F)CO)c3)c3cn(C4(C)CC4)c(=O)cc23)CC1` [Example 227, (R)-4-((1-(3-(1,1-difluoro-2-hydroxyethyl)phenyl)ethyl)amino)-1-(4-ethylpiperazin-1-yl)-6-(1-methylcyclopropyl) pyrido[3,4-d]pyridazin-7(6H)-one], for which the IC50 is 3.8 nM at SOS1 and 48.2 nM in series [2].
